Source: patent US12584113B2, “Method of cell culture” (Pfizer Inc., priority 2014, dated 2026)

Tested on: GS-CHO cells
Assay: Spike-in of single purified metabolites into Medium A, growth of GS-CHO cells monitored 5 or 6 days
Type: cell-based, Chinese hamster
Description: GS-CHO cells producing a recombinant antibody were inoculated at low viable cell densities (0.1E6 cells/mL) in various conditions in 5 ml volume, 6-well plate cultures. […] The pH of the Medium A, spiked-in with any one of the nine metabolites or any combination of the nine metabolites, was adjusted to 7 before inoculating the cells (on day 0).
For indolelactate, the stock solution (500 mM) was prepared in DMSO. […] All the conditions were run in duplicates or triplicates. Growth of the cells in above described conditions was monitored for 5 or 6 days.

[1] = metabolite alone at concentrations higher than 0.5 mM or 1 mM

CCC(O)C(=O)O (stereo not shown) [2-hydroxybutyric acid]
effect on growth of cells [1]: Modest inhibition of growth

O=C(O)C(O)Cc1ccc(O)cc1 (stereo not shown) [3-(4-hydroxyphenyl)lactate]
effect on growth of cells [1]: Modest inhibition of growth

O=CO [Formate]
effect on growth of cells (metabolite alone at concentrations 2 mM and beyond): negative effect on growth

N[C@@H](CCS)C(=O)O [Homocysteine]
effect on growth of cells [1]: Modest inhibition of growth

O=C(O)c1c[nH]c2ccccc12 [Indolecarboxylic acid]
effect on growth of cells (metabolite alone at concentrations of 1 mM or lower): potent negative effect on growth of cells

O=C(O)C(O)Cc1c[nH]c2ccccc12 (stereo not shown) [Indolelactate]
effect on growth of cells (metabolite alone at concentrations of 3 mM or below, DMSO control included): little or no effect on growth of cells

Phenyllactate [Phenyllactate (PLA)]
effect on growth of cells (metabolite alone at 1 mM concentration): mild effect on growth of cells
